Structures are written as SMILES.

This assay has as its target T1, hTRPV3 (Homo sapiens, UniProt Q8NET8).
T1 construct: The commercially available plasmid with the full-length cDNA of hTRPV3 (791 aa) (NM_001258205.2); host or cells: HEK293T
T1 sequence (Q8NET8 1-791 isoform Q8NET8-2): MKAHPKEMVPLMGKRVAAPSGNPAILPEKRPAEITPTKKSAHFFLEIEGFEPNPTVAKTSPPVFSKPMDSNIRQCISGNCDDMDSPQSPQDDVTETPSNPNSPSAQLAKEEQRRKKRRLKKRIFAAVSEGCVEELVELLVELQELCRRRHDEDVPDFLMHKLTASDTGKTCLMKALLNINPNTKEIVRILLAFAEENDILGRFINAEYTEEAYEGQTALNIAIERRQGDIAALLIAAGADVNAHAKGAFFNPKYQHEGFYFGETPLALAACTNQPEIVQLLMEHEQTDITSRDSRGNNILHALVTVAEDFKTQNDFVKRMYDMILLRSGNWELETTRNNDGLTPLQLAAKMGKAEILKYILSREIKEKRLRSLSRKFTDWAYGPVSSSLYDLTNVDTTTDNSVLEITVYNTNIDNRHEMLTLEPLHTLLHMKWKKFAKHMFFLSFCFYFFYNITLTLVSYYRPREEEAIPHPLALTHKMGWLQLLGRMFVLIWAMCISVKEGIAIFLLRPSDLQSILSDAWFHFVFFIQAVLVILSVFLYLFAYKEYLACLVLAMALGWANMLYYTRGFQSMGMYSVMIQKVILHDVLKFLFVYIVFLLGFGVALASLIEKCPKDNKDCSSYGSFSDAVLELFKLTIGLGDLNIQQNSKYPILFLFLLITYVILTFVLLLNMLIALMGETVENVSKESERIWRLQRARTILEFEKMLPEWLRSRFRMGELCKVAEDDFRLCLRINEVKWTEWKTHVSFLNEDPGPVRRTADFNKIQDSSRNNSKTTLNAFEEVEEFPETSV
In words: Whole-cell patch-clamp recording of hTRPV3 current in transfected HEK293T cells (2-APB induced). Type of assay: cell-based. As to conditions: current induced by 300 μM 2-APB, compounds tested up to 10 μM, room temperature. The gist of the method:
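IC50 comes from Hill fits, 0–100% bounds, of percent block of 2-APB-induced current, with compounds perfused at up to 10 μM. Currents elicited at +80/−80 mV (400-ms steps, 2-s interval, 0 mV hold), room temperature, symmetric NaCl/EDTA/HEPES pH 7.4 solutions. Cells: hTRPV3-transfected HEK293T, used 18 h after transfection.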
On the technique in general: The patch-clamp technique gives a direct electrical read-out from membranes.
As a reminder, the IC50 is the concentration at which inhibition is half-maximal. The low end stands for greater potency, the high end for weaker potency. `COc1ncnc(OC)c1C(=O)Nc1nc2c(s1)C1(CN(CC(C)C)C1)Oc1cc(C(F)(F)F)ccc1-2` [compound 150, N-(1-isobutyl-7′-(trifluoromethyl)spiro[azetidine-3,4′-chromeno[4,3-d]thiazol]-2′-yl)-4,6-dimethoxypyrimidine-5-carboxamide]: the IC50 is below 100 nM.
For `COc1ncnc(OCCN(C)C)c1C(=O)Nc1nc2c(s1)C1(COC1)Oc1cc(C(F)(F)F)ccc1-2` [compound 151, 4-(2-(dimethylamino)ethoxy)-6-methoxy-N-(7-(trifluoromethyl)spiro[chromeno[4,3-d]thiazole-4,3′-oxetan]-2-yl)pyrimidine-5-carboxamide] the value was 1000 to 10000 nM; for `COc1ncnc(OC)c1C(=O)Nc1nc2c(s1)C1(CCN(C(C)C)CC1)Oc1cc(C(F)(F)F)ccc1-2` [compound 152, N-(1′-isopropyl-7-(trifluoromethyl)spiro[chromeno[4,3-d]thiazole-4,4′-piperidin]-2-yl)-4,6-dimethoxypyrimidine-5-carboxamide], 100 to 1000 nM; for `COc1ncnc(OC)c1C(=O)Nc1nc2c(s1)C1(CN(C3(OC)CC3)C1)Oc1cc(C(F)(F)F)ccc1-2` [compound 153, 4,6-dimethoxy-N-(1-(1-methoxycyclopropyl)-7′-(trifluoromethyl)spiro[azetidine-3,4′-chromeno[4,3-d]thiazol]-2′-yl)pyrimidine-5-carboxamide], below 100 nM.
Consider `COc1ncnc(OC)c1C(=O)Nc1nc2c(s1)C1(CCN(C3CC3)CC1)Oc1cc(C(F)(F)F)ccc1-2` [compound 154], for which the IC50 fell in the range of 100 to 1000 nM.
For `COc1ncnc(OC)c1C(=O)Nc1nc2c(s1)C1(CCN(CC(C)C)CC1)Oc1cc(C(F)(F)F)ccc1-2` [compound 155, N-(1′-isobutyl-7-(trifluoromethyl)spiro[chromeno[4,3-d]thiazole-4,4′-piperidin]-2-yl)-4,6-dimethoxypyrimidine-5-carboxamide] the value was below 100 nM.
For `COc1ncnc(OC)c1C(=O)Nc1nc2c(s1)C1(CN(C(=O)OC(C)(C)C)C1)Oc1cnccc1-2` [compound 156, tert-butyl 2′-(4,6-dimethoxypyrimidine-5-carboxamido)spiro[azetidine-3,4′-thiazolo[4′,5′: 4,5]pyrano[2,3-c]pyridine]-1-carboxylate] the value was 1000 to 10000 nM; for `COCCN1CC2(C1)Oc1cc(C(F)(F)F)ccc1-c1nc(NC(=O)c3c(OC)ncnc3OC)sc12` [compound 157, 4,6-dimethoxy-N-(1-(2-methoxyethyl)-7′-(trifluoromethyl)spiro[azetidine-3,4′-chromeno[4,3-d]thiazol]-2′-yl)pyrimidine-5-carboxamide], below 100 nM.
`CCC1(CC)Oc2cc(C(F)(F)F)ccc2-c2nc(NC(=O)c3c(OC)nc(OC)nc3OC)sc21` [compound 158, N-(4,4-diethyl-7-(trifluoromethyl)-4H-chromeno[4,3-d]thiazol-2-yl)-2,4,6-trimethoxypyrimidine-5-carboxamide] showed a half-inhibitory concentration (IC50) of at least 10000 nM.
For `COc1ncnc(OC)c1C(=O)Nc1nc2c(s1)C1(CN(C3CCC3)C1)Oc1cc(C(F)(F)F)ccc1-2` [compound 159, N-(1-cyclobutyl-7′-(trifluoromethyl)spiro[azetidine-3,4′-chromeno[4,3-d]thiazol]-2′-yl)-4,6-dimethoxypyrimidine-5-carboxamide] the value was below 100 nM; for `COc1ncnc(OC)c1C(=O)Nc1nc2c(s1)C1(CN(C3COC3)C1)Oc1cc(C(F)(F)F)ccc1-2` [compound 160, 4,6-dimethoxy-N-(1-(oxetan-3-yl)-7′-(trifluoromethyl)spiro[azetidine-3,4′-chromeno[4,3-d]thiazol]-2′-yl)pyrimidine-5-carboxamide], 100 to 1000 nM.
Take `CCC1(CC)Oc2cc(C(F)(F)F)ccc2-c2nc(NC(=O)c3c(OC)nn(C)c3Br)sc21` [compound 161, 5-bromo-N-(4,4-diethyl-7-(trifluoromethyl)-4H-chromeno[4,3-d]thiazol-2-yl)-3-methoxy-1-methyl-1H-pyrazole-4-carboxamide]: the half-inhibitory concentration (IC50) is at least 10000 nM.
As for `CCC1(CC)Oc2cc(C(F)(F)F)ccc2-c2nc(NC(=O)c3c(OC)nc(C)nc3OC)sc21` [compound 162, N-(4,4-diethyl-7-(trifluoromethyl)-4H-chromeno[4,3-d]thiazol-2-yl)-4,6-dimethoxy-2-methylpyrimidine-5-carboxamide], the figure is 1000 to 10000 nM; as for `COC(=O)CN1CC2(C1)Oc1cc(C(F)(F)F)ccc1-c1nc(NC(=O)c3c(OC)ncnc3OC)sc12` [compound 163], below 100 nM; as for `COc1ncnc(OC)c1C(=O)Nc1nc2c(s1)C1(CN(CCN(C)C)C1)Oc1cc(C(F)(F)F)ccc1-2` [compound 164, N-(1-(2-(dimethylamino)ethyl)-7′-(trifluoromethyl)spiro[azetidine-3,4′-chromeno[4,3-d]thiazol]-2′-yl)-4,6-dimethoxypyrimidine-5-carboxamide], 1000 to 10000 nM.
The molecule `COc1ncnc(OC)c1C(=O)Nc1nc2c(s1)C1(CN(CC(=O)O)C1)Oc1cc(C(F)(F)F)ccc1-2` [compound 165] had a half-maximal inhibitory concentration (IC50) of at least 10000 nM.
For `COc1ncnc(OC)c1C(=O)Nc1nc2c(s1)C1(CN(CCO)C1)Oc1cc(C(F)(F)F)ccc1-2` [compound 166, N-(1-(2-hydroxyethyl)-7′-(trifluoromethyl)spiro[azetidine-3,4′-chromeno[4,3-d]thiazol]-2′-yl)-4,6-dimethoxypyrimidine-5-carboxamide] the value was 100 to 1000 nM; for `COc1ncnc(OC)c1C(=O)Nc1nc2c(s1)C1(CN(C(C)(C)CC(C)=O)C1)Oc1cc(C(F)(F)F)ccc1-2` [compound 167, 4,6-dimethoxy-N-(1-(2-methyl-4-oxopentan-2-yl)-7′-(trifluoromethyl)spiro[azetidine-3,4′-chromeno[4,3-d]thiazol]-2′-yl)pyrimidine-5-carboxamide], 100 to 1000 nM; for `COc1ncnc(OC)c1C(=O)Nc1nc2c([se]1)C1(CN(C(=O)OC(C)(C)C)C1)Oc1cc(C(F)(F)F)ccc1-2` [compound 168, tert-butyl 2′-(4,6-dimethoxypyrimidine-5-carboxamido)-7′-(trifluoromethyl)spiro[azetidine-3,4′-chromeno[4,3-d][1,3]selenazole]-1-carboxylate], 100 to 1000 nM.

The values are drawn from patent publication US20260217697A1, “COMPOUNDS COMPRISING HETEROARYL RINGS AND COMPOSITIONS AND METHODS THEREOF” (lonGen Therapeutics Co., Ltd., priority 2022, published 2026).
